Assay results as given in patent US7872018B2, “Compounds and methods for kinase modulation, and indications therefor” (Plexxikon, Inc., priority 2006, dated 2011).

Legend:
Fms = molecular target: T1, Fms (Homo sapiens, UniProt P07333); assay: Fms biochemical assay (AlphaScreen or 33P-ATP); conditions: under the test conditions employed; read-out: IC50 toward kinase Fms
T1 construct: purchased Upstate Biotech 14-551
Source text: Each sample was at 5% DMSO.

Kit = molecular target: T2, Kit (Homo sapiens, UniProt P10721); assay: c-kit biochemical assay (AlphaScreen or 33P-ATP); conditions: under the test conditions employed; read-out: IC50 toward kinase Kit
T2 construct: P1332.N6 BI PTP KIT M552-K948-X COD; made in house; host or cells: E. coli BL21(DE3)RIL, co-expressed with PTP1B
Experimental: C-kit kinase was at 1 ng per sample.
The c-kit enzyme used in the above assay was either obtained from Cell Signaling Technology (Cat. #7754) or was prepared as follows: A plasmid encoding kit (DNA and encoded protein sequences shown below) was engineered using common polymerase chain reaction (PCR) methods. Complementary DNA cloned from various human tissues were purchased from Invitrogen, and these were used as substrates in the PCR reactions. Specific custom synthetic oligonucleotide primers were designed to initiate the PCR product, and also to provide the appropriate restriction enzyme cleavage sites for ligation with the plasmids. The entire sequence encoding the enzyme was made through a gene synthesis procedure, using custom synthetic oligonucleotides covering the entire coding sequence (Invitrogen, see below).

TrkA = molecular target: T3, TrkA (Homo sapiens, UniProt P04629); assay: TrkA biochemical assay (AlphaScreen); conditions: under the test conditions employed; read-out: IC50 toward kinase TrkA
T3 construct: purchased Upstate Biotech 14-571
Experimental: Compounds tested were dissolved in DMSO (1 μL) and added to a white 384-well plate (Costar #3705). […] Each sample was at 5% DMSO. The plate was then incubated for 40 minutes at room temperature.

HGK = HGK (Homo sapiens, UniProt O95819); assay: HGK (MAP4K4) biochemical assay (AlphaScreen); conditions: under the test conditions employed; read-out: IC50 toward kinase HGK
Experimental: Substrate was 10 nM biotin-ERM (T567/T564/T558, Cell Signaling, Inc., cat#1344). MAP4K4 kinase was at 0.5 ng per sample. After incubation of the kinase reaction for 40 min at room temperature, 5 μl of donor beads and protein A acceptor beads (Perkin Elmer Life Science, cat#67606017) at final concentration 1 μg/ml in stop buffer (20 mM Tris, pH 7.4, 200 mM Nacl, 100 mM EDTA, 0.03% BSA) was added, along with Phospho-ERM Antibody (T567/T564/T558, Cell Signaling, Inc., cat#3141) at 1:1000 dilution. […] Phosphorylated substrate results in binding of the antibody which binds to protein A acceptor bead and association of the donor and acceptor beads is such that the signal correlates with kinase activity.

B-Raf V600E = B-Raf V600E (Homo sapiens, UniProt P15056, V600E); assay: B-Raf V600E kinase activity assay; assay type: biochemical; conditions: under the test conditions employed; read-out: IC50 toward kinase B-Raf V600E
Kdr = Kdr (Homo sapiens, UniProt P35968); assay: Kdr kinase activity assay; assay type: biochemical; conditions: under the test conditions employed; read-out: IC50 toward kinase Kdr
Chain of Kdr (P35968 20-1356): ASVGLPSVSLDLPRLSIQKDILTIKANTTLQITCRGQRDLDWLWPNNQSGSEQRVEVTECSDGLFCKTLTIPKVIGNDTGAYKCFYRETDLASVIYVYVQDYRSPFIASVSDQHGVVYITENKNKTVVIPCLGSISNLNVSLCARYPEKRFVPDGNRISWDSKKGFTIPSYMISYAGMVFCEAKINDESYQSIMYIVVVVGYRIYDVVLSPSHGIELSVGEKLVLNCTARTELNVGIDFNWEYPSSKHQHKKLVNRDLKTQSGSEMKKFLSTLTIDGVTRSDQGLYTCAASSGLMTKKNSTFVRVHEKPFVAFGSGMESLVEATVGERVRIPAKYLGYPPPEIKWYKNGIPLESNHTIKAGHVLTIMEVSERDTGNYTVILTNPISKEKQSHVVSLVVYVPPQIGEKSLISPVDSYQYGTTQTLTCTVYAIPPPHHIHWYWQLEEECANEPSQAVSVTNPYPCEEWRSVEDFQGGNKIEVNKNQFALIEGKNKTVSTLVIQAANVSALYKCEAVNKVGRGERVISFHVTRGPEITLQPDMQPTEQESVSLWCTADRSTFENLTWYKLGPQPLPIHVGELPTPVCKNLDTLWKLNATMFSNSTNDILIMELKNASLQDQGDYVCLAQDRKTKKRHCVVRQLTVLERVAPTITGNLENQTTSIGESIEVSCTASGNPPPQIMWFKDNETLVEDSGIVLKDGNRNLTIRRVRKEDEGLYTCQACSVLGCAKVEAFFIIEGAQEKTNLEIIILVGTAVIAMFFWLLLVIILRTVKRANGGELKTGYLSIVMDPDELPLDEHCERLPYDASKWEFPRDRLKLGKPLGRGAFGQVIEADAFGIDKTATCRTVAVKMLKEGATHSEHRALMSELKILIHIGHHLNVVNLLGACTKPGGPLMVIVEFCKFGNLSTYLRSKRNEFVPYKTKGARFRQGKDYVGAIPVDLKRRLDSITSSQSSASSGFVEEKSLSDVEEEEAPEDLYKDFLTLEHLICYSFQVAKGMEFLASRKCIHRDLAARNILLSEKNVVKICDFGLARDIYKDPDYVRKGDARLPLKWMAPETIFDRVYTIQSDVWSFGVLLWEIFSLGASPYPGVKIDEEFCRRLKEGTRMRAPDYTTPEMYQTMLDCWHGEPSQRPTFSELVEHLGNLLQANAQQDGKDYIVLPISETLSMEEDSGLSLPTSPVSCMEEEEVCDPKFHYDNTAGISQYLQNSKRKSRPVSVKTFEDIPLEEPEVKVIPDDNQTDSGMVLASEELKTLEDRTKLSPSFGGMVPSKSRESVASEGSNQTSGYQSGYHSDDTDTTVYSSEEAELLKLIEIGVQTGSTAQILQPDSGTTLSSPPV

Chain of HGK (O95819 whole entry): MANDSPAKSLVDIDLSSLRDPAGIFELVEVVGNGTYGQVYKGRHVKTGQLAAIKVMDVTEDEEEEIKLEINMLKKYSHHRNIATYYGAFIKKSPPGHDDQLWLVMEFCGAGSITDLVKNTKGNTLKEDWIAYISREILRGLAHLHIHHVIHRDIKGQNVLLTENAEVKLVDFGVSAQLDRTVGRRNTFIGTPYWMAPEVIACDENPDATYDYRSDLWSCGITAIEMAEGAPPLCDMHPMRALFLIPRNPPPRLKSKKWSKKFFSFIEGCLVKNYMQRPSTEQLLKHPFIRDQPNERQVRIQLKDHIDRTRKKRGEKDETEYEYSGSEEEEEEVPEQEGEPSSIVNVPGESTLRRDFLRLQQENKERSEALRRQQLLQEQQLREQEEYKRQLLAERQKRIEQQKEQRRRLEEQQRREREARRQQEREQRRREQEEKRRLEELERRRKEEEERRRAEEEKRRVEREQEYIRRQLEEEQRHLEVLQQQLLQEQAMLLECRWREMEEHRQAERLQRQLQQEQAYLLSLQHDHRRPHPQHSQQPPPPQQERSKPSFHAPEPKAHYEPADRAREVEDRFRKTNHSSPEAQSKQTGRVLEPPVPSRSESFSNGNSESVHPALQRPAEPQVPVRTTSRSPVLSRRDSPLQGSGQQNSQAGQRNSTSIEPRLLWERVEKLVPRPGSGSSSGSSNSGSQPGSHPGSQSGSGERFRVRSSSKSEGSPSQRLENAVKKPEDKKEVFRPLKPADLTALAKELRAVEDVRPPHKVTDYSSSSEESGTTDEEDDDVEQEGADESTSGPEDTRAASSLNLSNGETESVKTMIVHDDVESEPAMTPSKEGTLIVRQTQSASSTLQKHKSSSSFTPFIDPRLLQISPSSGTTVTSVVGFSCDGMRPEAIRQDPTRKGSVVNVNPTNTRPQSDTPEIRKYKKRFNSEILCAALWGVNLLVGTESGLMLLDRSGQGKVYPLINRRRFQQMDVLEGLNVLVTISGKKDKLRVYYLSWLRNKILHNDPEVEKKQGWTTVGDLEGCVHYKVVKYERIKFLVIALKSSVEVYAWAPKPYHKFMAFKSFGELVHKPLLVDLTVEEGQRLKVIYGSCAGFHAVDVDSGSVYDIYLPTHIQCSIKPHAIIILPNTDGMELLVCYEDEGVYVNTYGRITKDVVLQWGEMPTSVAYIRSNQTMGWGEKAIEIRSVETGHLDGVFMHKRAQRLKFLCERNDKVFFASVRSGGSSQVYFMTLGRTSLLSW
T2 sequence (P10721 552-948): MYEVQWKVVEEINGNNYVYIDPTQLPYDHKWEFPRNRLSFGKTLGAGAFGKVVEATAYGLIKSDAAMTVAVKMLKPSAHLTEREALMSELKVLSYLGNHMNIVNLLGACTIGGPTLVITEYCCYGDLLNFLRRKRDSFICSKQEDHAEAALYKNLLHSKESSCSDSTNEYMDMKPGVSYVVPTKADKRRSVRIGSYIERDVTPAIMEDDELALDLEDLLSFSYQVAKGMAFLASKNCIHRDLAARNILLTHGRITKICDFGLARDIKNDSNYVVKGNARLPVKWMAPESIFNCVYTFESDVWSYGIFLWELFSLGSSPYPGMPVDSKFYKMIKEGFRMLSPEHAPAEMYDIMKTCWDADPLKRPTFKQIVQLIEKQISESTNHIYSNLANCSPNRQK
T3 sequence (P04629 33-796): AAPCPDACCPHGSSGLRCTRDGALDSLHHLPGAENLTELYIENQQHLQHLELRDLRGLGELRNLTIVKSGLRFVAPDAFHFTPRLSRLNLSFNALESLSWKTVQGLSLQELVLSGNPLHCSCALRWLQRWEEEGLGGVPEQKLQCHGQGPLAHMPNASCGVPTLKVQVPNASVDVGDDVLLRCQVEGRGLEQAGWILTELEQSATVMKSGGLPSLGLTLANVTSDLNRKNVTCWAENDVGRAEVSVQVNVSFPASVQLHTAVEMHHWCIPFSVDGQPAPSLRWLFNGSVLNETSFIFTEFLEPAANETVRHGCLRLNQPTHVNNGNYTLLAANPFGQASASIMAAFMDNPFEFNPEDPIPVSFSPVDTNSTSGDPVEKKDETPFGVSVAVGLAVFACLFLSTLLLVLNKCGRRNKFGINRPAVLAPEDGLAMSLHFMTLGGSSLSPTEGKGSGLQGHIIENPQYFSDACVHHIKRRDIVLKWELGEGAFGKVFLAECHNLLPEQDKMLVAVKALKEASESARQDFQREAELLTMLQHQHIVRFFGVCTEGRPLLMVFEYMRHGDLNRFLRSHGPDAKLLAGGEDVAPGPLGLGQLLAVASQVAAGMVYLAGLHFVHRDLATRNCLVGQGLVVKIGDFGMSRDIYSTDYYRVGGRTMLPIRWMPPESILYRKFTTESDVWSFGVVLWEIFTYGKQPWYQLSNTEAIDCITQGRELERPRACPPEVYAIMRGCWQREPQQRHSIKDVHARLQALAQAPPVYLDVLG
T1 sequence (P07333 20-972): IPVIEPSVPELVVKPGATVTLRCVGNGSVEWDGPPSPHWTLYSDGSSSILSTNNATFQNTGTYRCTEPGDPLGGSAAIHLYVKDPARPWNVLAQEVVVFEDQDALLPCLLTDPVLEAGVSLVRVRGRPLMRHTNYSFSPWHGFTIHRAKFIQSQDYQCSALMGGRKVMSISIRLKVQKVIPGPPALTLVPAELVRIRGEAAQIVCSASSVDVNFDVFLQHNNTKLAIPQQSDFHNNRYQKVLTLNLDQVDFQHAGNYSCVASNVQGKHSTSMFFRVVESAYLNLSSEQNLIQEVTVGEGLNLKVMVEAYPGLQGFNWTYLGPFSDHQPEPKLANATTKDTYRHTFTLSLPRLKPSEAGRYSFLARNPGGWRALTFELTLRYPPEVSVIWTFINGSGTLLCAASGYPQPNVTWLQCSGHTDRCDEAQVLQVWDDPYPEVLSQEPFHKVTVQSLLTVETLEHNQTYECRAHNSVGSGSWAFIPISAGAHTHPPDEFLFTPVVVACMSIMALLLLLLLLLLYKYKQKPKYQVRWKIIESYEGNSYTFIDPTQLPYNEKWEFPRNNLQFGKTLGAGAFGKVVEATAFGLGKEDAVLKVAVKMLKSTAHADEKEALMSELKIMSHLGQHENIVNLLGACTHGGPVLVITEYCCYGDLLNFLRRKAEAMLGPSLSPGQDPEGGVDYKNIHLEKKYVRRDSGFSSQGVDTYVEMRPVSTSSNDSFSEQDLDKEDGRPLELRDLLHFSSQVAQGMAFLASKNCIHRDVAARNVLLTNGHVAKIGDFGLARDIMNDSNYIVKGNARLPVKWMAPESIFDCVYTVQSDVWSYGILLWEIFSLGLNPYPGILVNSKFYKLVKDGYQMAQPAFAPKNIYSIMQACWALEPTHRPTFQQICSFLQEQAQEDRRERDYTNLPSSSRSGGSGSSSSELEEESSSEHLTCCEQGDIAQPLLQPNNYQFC

Which results are given for `COc1cc(Cc2c[nH]c3ncc(Cl)cc23)c(F)cc1OCc1nc2cc(Cl)ccc2[nH]1` [P-2111, 6-Chloro-2-[4-(5-chloro-1H-pyrrolo[2,3-b]pyridin-3-ylmethyl)-5-fluoro-2-methoxy-phenoxymethyl]-1H-benzoimidazole]?
IC50 (Fms): ≤ 10 µM; IC50 (Kit): ≤ 10 µM; IC50 (TrkA): ≤ 10 µM; IC50 (HGK): ≤ 10 µM

`COc1cc(Cc2c[nH]c3ncc(Cl)cc23)c(F)cc1OCc1nc2ccccc2n1C` [P-2106, 2-[4-(5-Chloro-1H-pyrrolo[2,3-b]pyridin-3-ylmethyl)-5-fluoro-2-methoxy-phenoxymethyl]-1-methyl-1H-benzoimidazole] was tested. Which IC50 (Fms) did it give?
Its IC50 is no more than 10 µM.

What about the IC50 (Kit) of the same compound?
Its IC50 is no more than 10 µM.

And the IC50 (TrkA)?
Its IC50 is no more than 10 µM.

And the IC50 (HGK)?
Its IC50 is no more than 10 µM.

For `COc1cc(Cc2c[nH]c3ncccc23)c(F)cc1OCc1nc2ccc(Cl)cc2[nH]1` [P-2112, 6-Chloro-2-[5-fluoro-2-methoxy-4-(1H-pyrrolo[2,3-b]pyridin-3-ylmethyl)-phenoxymethyl]-1H-benzoimidazole], which IC50 (Fms) is on record?
The IC50 was no more than 10 µM.

And the IC50 (Kit)?
The IC50 was no more than 10 µM.

What about the IC50 (TrkA) of the same compound?
Its IC50 is no more than 10 µM.

What about the IC50 (HGK) of the same compound?
Its IC50 is no more than 10 µM.

What does the source list for `COc1cc(Cc2c[nH]c3ncccc23)c(Cl)cc1OCc1nc2ccccc2[nH]1` [P-2103, 2-[5-Chloro-2-methoxy-4-(1H-pyrrolo[2,3-b]pyridin-3-ylmethyl)-phenoxymethyl]-1H-benzoimidazole]?
IC50 (Fms): ≤ 10 µM; IC50 (TrkA): ≤ 10 µM; IC50 (HGK): ≤ 10 µM

For `COc1cc(C(=O)c2c[nH]c3ncccc23)ccc1OCc1ccc(Cl)cc1` [P-1698, [4-(4-Chloro-benzyloxy)-3-methoxy-phenyl]-(1H-pyrrolo[2,3-b]pyridin-3-yl)-methanone], which IC50 (B-Raf V600E) is on record?
Its IC50 is no more than 10 µM.

Which IC50 (B-Raf V600E) does the source give for `COc1cc(Cc2c[nH]c3ncccc23)ccc1OCc1c(F)cc(F)cc1F` [P-1578, 3-[3-Methoxy-4-(2,4,6-trifluoro-benzyloxy)-benzyl]-1H-pyrrolo[2,3-b]pyridine] here?
The IC50 was no more than 10 µM.

What about the IC50 (Kit) of the same compound?
Its IC50 is no more than 10 µM.

Which results are given for `COc1cnc2[nH]cc(Cc3c(F)ccc(OCC(F)(F)F)c3Cl)c2c1` [P-2147, 3-[2-Chloro-6-fluoro-3-(2,2,2-trifluoro-ethoxy)-benzyl]-5-methoxy-1H-pyrrolo[2,3-b]pyridine]?
IC50 (Fms): ≤ 10 µM; IC50 (Kdr): ≤ 10 µM

`COc1cc(Cc2c[nH]c3ncc(C(=O)O)cc23)c(F)cc1OCc1nc2ccccc2[nH]1` [P-2175, 3-[4-(1H-Benzoimidazol-2-ylmethoxy)-2-fluoro-5-methoxy-benzyl]-1H-pyrrolo[2,3-b]pyridine-5-carboxylic acid] was tested. Which IC50 (Fms) did it give?
Its IC50 is no more than 10 µM.

And the IC50 (TrkA)?
Its IC50 is no more than 10 µM.

And the IC50 (HGK)?
Its IC50 is no more than 10 µM.

What does the source list for `COc1cc(Cc2c[nH]c3ncc(Cl)cc23)c(F)cc1OCCc1nc2ccccc2[nH]1` [P-2180, 2-{2-[4-(5-Chloro-1H-pyrrolo[2,3-b]pyridin-3-ylmethyl)-5-fluoro-2-methoxy-phenoxy]-ethyl}-1H-benzoimidazole]?
IC50 (Fms): ≤ 10 µM; IC50 (Kit): ≤ 10 µM; IC50 (TrkA): ≤ 10 µM; IC50 (HGK): ≤ 10 µM

What does the source list for `COc1cnc2[nH]cc(Cc3c(Cl)ccc(OCC(F)(F)F)c3Cl)c2c1` [P-2153, 3-[2,6-Dichloro-3-(2,2,2-trifluoro-ethoxy)-benzyl]-5-methoxy-1H-pyrrolo[2,3-b]pyridine]?
IC50 (Fms): ≤ 10 µM; IC50 (Kdr): ≤ 10 µM

Which results are given for `COc1cc(Cc2c[nH]c3ncccc23)cc(F)c1OCc1ccc(Cl)cc1` [P-1466, 3-[4-(4-Chloro-benzyloxy)-3-fluoro-5-methoxy-benzyl]-1H-pyrrolo[2,3-b]pyridine]?
IC50 (B-Raf V600E): ≤ 10 µM; IC50 (Fms): ≤ 10 µM; IC50 (Kit): ≤ 10 µM

`FC(F)(F)c1ccc(COc2ccc(Cc3c[nH]c4ncccc34)cc2C(F)(F)F)cc1` [P-1797, 3-[3-Trifluoromethyl-4-(4-trifluoromethyl-benzyloxy)-benzyl]-1H-pyrrolo[2,3-b]pyridine] was tested. Which IC50 (B-Raf V600E) did it give?
The IC50 was no more than 10 µM.

`Fc1cc(Cc2c[nH]c3ncc(Cl)cc23)c(Cl)cc1OCc1nc2ccccc2[nH]1` [P-2099, 2-[5-Chloro-4-(5-chloro-1H-pyrrolo[2,3-b]pyridin-3-ylmethyl)-2-fluoro-phenoxymethyl]-1H-benzoimidazole] was tested. Which IC50 (Fms) did it give?
The IC50 was no more than 10 µM.

And the IC50 (TrkA)?
Its IC50 is no more than 10 µM.

What about the IC50 (HGK) of the same compound?
Its IC50 is no more than 10 µM.

Which results are given for `COc1cc(Cc2c[nH]c3ncc(Cl)cc23)c(F)cc1OCc1nc2cc(C(F)(F)F)ccc2[nH]1` [P-2178, 2-[4-(5-Chloro-1H-pyrrolo[2,3-b]pyridin-3-ylmethyl)-5-fluoro-2-methoxy-phenoxymethyl]-5-trifluoromethyl-1H-benzoimidazole]?
IC50 (Fms): ≤ 10 µM; IC50 (Kit): ≤ 10 µM; IC50 (TrkA): ≤ 10 µM; IC50 (HGK): ≤ 10 µM

Which results are given for `COc1cc(Cc2c[nH]c3ncc(Cl)cc23)c(F)cc1OCc1nc2cc(Cl)c(Cl)cc2[nH]1` [P-2172, 5,6-Dichloro-2-[4-(5-chloro-1H-pyrrolo[2,3-b]pyridin-3-ylmethyl)-5-fluoro-2-methoxy-phenoxymethyl]-1H-benzoimidazole]?
IC50 (Fms): ≤ 10 µM; IC50 (Kit): ≤ 10 µM; IC50 (TrkA): ≤ 10 µM; IC50 (HGK): ≤ 10 µM

Which IC50 (Fms) does the source give for `COc1cc(Cc2c[nH]c3ncc(F)cc23)c(F)cc1OCc1nc2ccccc2[nH]1` [P-2115, 2-[5-Fluoro-4-(5-fluoro-1H-pyrrolo[2,3-b]pyridin-3-ylmethyl)-2-methoxy-phenoxymethyl]-1H-benzoimidazole] here?
The IC50 was no more than 10 µM.

And the IC50 (TrkA)?
The IC50 was no more than 10 µM.

And the IC50 (HGK)?
Its IC50 is no more than 10 µM.

How did the IC50 (Fms) turn out when `COc1cc(Cc2c[nH]c3ncc(C#N)cc23)c(F)cc1OCc1nc2ccccc2[nH]1` [P-2171, 3-[4-(1H-Benzoimidazol-2-ylmethoxy)-2-fluoro-5-methoxy-benzyl]-1H-pyrrolo[2,3-b]pyridine-5-carbonitrile] was run?
The IC50 was no more than 10 µM.

And the IC50 (TrkA)?
Its IC50 is no more than 10 µM.

What about the IC50 (HGK) of the same compound?
Its IC50 is no more than 10 µM.

`COc1cc(Cc2c[nH]c3ncccc23)ccc1OCc1c(Cl)cccc1Cl` [P-1579, 3-[4-(2,6-Dichloro-benzyloxy)-3-methoxy-benzyl]-1H-pyrrolo[2,3-b]pyridine] was tested. Which IC50 (B-Raf V600E) did it give?
Its IC50 is no more than 10 µM.

For `Clc1ccc(COc2ccc(Cc3c[nH]c4ncccc34)c(Cl)c2)cc1` [P-1471, 3-[2-Chloro-4-(4-chloro-benzyloxy)-benzyl]-1H-pyrrolo[2,3-b]pyridine], which IC50 (B-Raf V600E) is on record?
The IC50 was no more than 10 µM.

What about the IC50 (Fms) of the same compound?
Its IC50 is no more than 10 µM.

And the IC50 (Kit)?
The IC50 was no more than 10 µM.

What does the source list for `COc1cc(Cc2c[nH]c3ncc(Cl)cc23)c(Cl)cc1OCc1nc2ccccc2[nH]1` [P-2104, 2-[5-Chloro-4-(5-chloro-1H-pyrrolo[2,3-b]pyridin-3-ylmethyl)-2-methoxy-phenoxymethyl]-1H-benzoimidazole]?
IC50 (Fms): ≤ 10 µM; IC50 (TrkA): ≤ 10 µM; IC50 (HGK): ≤ 10 µM

What does the source list for `COc1ccc2[nH]c(COc3cc(F)c(Cc4c[nH]c5ncc(Cl)cc45)cc3OC)nc2c1` [P-2182, 2-[4-(5-Chloro-1H-pyrrolo[2,3-b]pyridin-3-ylmethyl)-5-fluoro-2-methoxy-phenoxymethyl]-5-methoxy-1H-benzoimidazole]?
IC50 (Fms): ≤ 10 µM; IC50 (TrkA): ≤ 10 µM; IC50 (HGK): ≤ 10 µM

What does the source list for `O=C(c1c(F)ccc(OCC(F)(F)F)c1Cl)c1c[nH]c2ncccc12` [P-2150, [2-Chloro-6-fluoro-3-(2,2,2-trifluoro-ethoxy)-phenyl]-(1H-pyrrolo[2,3-b]pyridin-3-yl)-methanone]?
IC50 (Fms): ≤ 10 µM; IC50 (Kdr): ≤ 10 µM

Which results are given for `COC(=O)c1cnc2[nH]cc(Cc3cc(OC)c(OCc4nc5ccccc5[nH]4)cc3F)c2c1` [P-2174, 3-[4-(1H-Benzimidazol-2-ylmethoxy)-2-fluoro-5-methoxy-benzyl]-1H-pyrrolo[2,3-b]pyridine-5-carboxylic acid methyl ester]?
IC50 (Fms): ≤ 10 µM; IC50 (Kit): ≤ 10 µM; IC50 (TrkA): ≤ 10 µM; IC50 (HGK): ≤ 10 µM

How did the IC50 (Fms) turn out when `COc1cnc2[nH]cc(Cc3cc(Cl)c(OCc4nc5ccccc5[nH]4)cc3F)c2c1` [P-2116, 2-[2-Chloro-5-fluoro-4-(5-methoxy-1H-pyrrolo[2,3-b]pyridin-3-ylmethyl)-phenoxymethyl]-1H-benzoimidazole] was run?
Its IC50 is no more than 10 µM.

And the IC50 (TrkA)?
Its IC50 is no more than 10 µM.

And the IC50 (HGK)?
The IC50 was no more than 10 µM.

`CCOc1cc(Cc2c[nH]c3ncccc23)ccc1OCc1ccc(Cl)cc1` [P-1470, 3-[4-(4-Chloro-benzyloxy)-3-ethoxy-benzyl]-1H-pyrrolo[2,3-b]pyridine] was tested. Which IC50 (B-Raf V600E) did it give?
The IC50 was no more than 10 µM.

And the IC50 (Fms)?
Its IC50 is no more than 10 µM.

What about the IC50 (Kit) of the same compound?
Its IC50 is no more than 10 µM.

How did the IC50 (Fms) turn out when `COc1cc(Cc2c[nH]c3ncc(Cl)cc23)c(F)cc1OC(C)c1nc2ccccc2[nH]1` (stereo not shown) [P-2110, 2-{1-[4-(5-Chloro-1H-pyrrolo[2,3-b]pyridin-3-ylmethyl)-5-fluoro-2-methoxy-phenoxy]-ethyl}-1H-benzoimidazole] was run?
Its IC50 is no more than 10 µM.

What about the IC50 (Kit) of the same compound?
The IC50 was no more than 10 µM.

What about the IC50 (TrkA) of the same compound?
Its IC50 is no more than 10 µM.

And the IC50 (HGK)?
Its IC50 is no more than 10 µM.
